Residues, ends and D or L forms follow the SMILES beside them. *: point of attachment. X1 = C[C@@H]1Cc2ccc3ccccc3c2/C1=C1\c2cc(C#CCCN=[N+]=[N-])ccc2Sc2ccc(C#CCCn3cc(C(=O)*)nn3)cc21
Tests used:
[1] = tested on: HEK293 cells; assay: Whole cell patch clamp electrophysiology; format: cell-based, human
Procedure: FIGS. 16A-B show whole-cell patch clamp studies of the dynamic effects of UV-induced molecular mechanical action of compound 3 upon HEK293 cells. Also shown are control studies using compound 3 without UV activation, UV-exposed rotor-free control molecule 5, and no molecular additives x. Compounds 3 and 5 were used at 1.0 μM concentrations. […] Similarly, the rotor-free compound 5, and no molecular additive x, show no inward currents during UV illumination (center two traces). Cells were held at −70 mV in voltage clamp mode and UV exposure began 15 seconds after the start of the recording. Each recording is a biological replicate and all traces are shown (n=4 recordings from different cells for 3+UV; n=3 recordings from different cells for each other condition). […] The white arrows (lower right image) highlight membrane blebbing that appears only in the cells treated with UV-activated compound 3. The scale bar represents 10 μm and is applicable for each micrograph.
The dynamic effects of nanomechanical action upon cellular membranes were then studied through the whole cell patch clamp electrophysiology of human embryonic kidney 293 cells (HEK293) commonly used for electrophysiological interrogation. […] These inward currents were not observed in the absence of UV illumination or during UV illumination of non-rotor-bearing control 5 or UV illumination of untreated cells (FIG. 16A).

[2] = tested on: NIH 3T3 cells; assay: UV-activated nanomechanical necrosis, live cell confocal microscopy, NIH 3T3; format: cell-based, mouse; details: for Time of Full Necrosis / Time of Initial Necrosis / % acceleration for full necrosis: 355 nm UV; for % acceleration for full necrosis: versus UV upon blank cells
Procedure: (§1) Following the synthetic bilipid vesicle experiments, nanomechanical action upon live cells was studied using confocal microscopy aided by a super-resolution technique called Phase Modulation Nanoscopy. Applicants used two experimental methods. In the first method (Method A), the molecular motors were loaded into the cell media and the imaging was initiated within 5 minutes to 24 hours. In the second method, (Method B), the molecular motors were loaded into the cell media, incubated for 30 minutes to 24 hours, and then washed three times with fresh molecular motor-free media before imaging. […]
(§2) Microscopy cells were seeded in untreated iBibi 100 μL live cell channels and allowed to grow to 40% to 60% confluence, at 37° C. in 5% CO2. At this stage, the medium was replaced and cells were treated with the studied nanomachines and co-stains as appropriate, with 0.1% DMSO (as detailed above) present in the final imaging medium. For live cell imaging, DMEM/F12 media (10% FBS) lacking phenol red was used from this point onwards. Following incubation, where Method B was used, the channels were washed with live cell imaging media and imaged using a purpose build incubator housing the microscope maintaining 37° C., 5% CO2 and 10% humidity.
(§3) All live cell imaging experiments used either NIH 3T3 mouse skin fibroblast cells, PC-3 cells, a grade 3 human prostate adenocarcinoma, or Chinese hamster ovary cells (CHO). These are all well-studied cell lines with discrete morphological compositions. Each molecular machine was used as a stock solution at 0.10 to 1.00 μM with total dimethyl sulfoxide (DMSO) concentrations not exceeding 0.1% in the final cell media in order to avoid unwanted cell membrane permeabilization, the DMSO being required for solubility of the organic nanomachines. All loading experiments are carried out in a light-suppressed manner and the possibility of induced or accelerated uptake due to interaction between the molecular motors and the applied co-stain has been eliminated using a series of individual and reversed loading experiments.
(§4) All experimental imaging parameters (i.e., laser beam size, confocal pinhole size, laser intensity, line scanning speed, scanning area (field of view, FOV), and line averaging sequences) were kept constant throughout the experiments. The accuracy and errors associated with the establishment of accelerated necrosis are determined based on one dual channel imaging sequence, which takes 15 seconds in total. This imaging sequence has been carefully established using untreated live cells.
(§5) Steady state fluorescence images were recorded using a PhMoNa enhanced Leica SP5 II LSCM equipped with a HCX PL APO 63×/1.40 NA LambdaBlue Oil immersion objective. As an initial control experiment to establish the UV-induced cell toxicity threshold, while mitigating voxel exposure and ensuring sufficient laser dwell time, an imaging sequence has been established to monitor cell morphological and physiological changes as a function of time. All experiments used cell-line-determined culture medium containing 0.1% DMSO.
(§6) The applied 100 Hz detection sequence was based on a bidirectional dual-channel continuous scanning method where a minimalistic non-damaging visible laser light (458 nm, 0.2 mW) is used in conjunction with the above detailed UV exposure. This is set as a 2 line/scan accumulation parallel acquisition sequence that is recorded as a function of time. Studied channels correspond to transmission images and UV-induced mitochondrial auto-fluorescence detected at 460 to 550 nm. Applicants further confirmed that the effectiveness of monitoring the UV-activated nanomechanical action on live cells using a conventional CW mercury-arc excitation source equipped with an epi-fluorescence setup consisting of a Zeiss Axiovert 200M inverted microscope, as discussed in FIGS. 18A-C. […]

[3] = tested on: PC-3 cells; assay: UV-activated nanomechanical necrosis, live cell confocal microscopy, PC-3; format: cell-based, human; details: for Time of Full Necrosis / Time of Initial Necrosis / % acceleration for full necrosis: 355 nm UV; for % acceleration for full necrosis: versus UV upon blank cells; for selectivity for targeted PC-3 cells over non-targeted control cells (in words): NIH 3T3 and CHO as non-targeted controls
Procedure: Following the synthetic bilipid vesicle experiments, nanomechanical action upon live cells was studied using confocal microscopy aided by a super-resolution technique called Phase Modulation Nanoscopy. Applicants used two experimental methods. In the first method (Method A), the molecular motors were loaded into the cell media and the imaging was initiated within 5 minutes to 24 hours. In the second method, (Method B), the molecular motors were loaded into the cell media, incubated for 30 minutes to 24 hours, and then washed three times with fresh molecular motor-free media before imaging.
Next, Applicants used the smaller nanomachine, 3. Initial control experiments (blank) were performed without nanomachines being present. UV-induced (355 nm) PC-3 necrosis is not initiated until approximately scan 20 (corresponding to 300 second continuous scanning UV exposure, 400 nJ/voxel total dwell time), characterized by massive disruption and rupture of the mitochondrial network and subsequent well-pronounced auto-fluorescent signal detectable in the nucleoli and nucleus wall (FIG. 7A). This is observable by the nucleoli membrane permeabilization and DNA damage at the onset of necrosis. The UV-induced necrosis reaches final stages at approximately scan 40 (corresponding to 600 seconds) that is consistent with characteristic extracellular membrane rupture and homogenous cytosolic auto-fluorescence, indicating loss of cellular organelle boundaries.
as §2, §3, §4
as §5, with “DMSO. […]” for “DMSO.”

[4] = tested on: NIH 3T3 cells; assay: Two-photon near-infra red activation, PI dye entry, NIH 3T3; format: cell-based, mouse; details: NIH 3T3, 1 μM, PI 200 nM
Procedure: (§7) Two-photon microscopy studies of NIH 3T3 cells were executed on a Nikon E600 upright confocal microscope coupled to a tuneable (710-950 nm Coherent MaiTai) multiphoton source operating at (20%) 240 mW power using a 166 lps scan speed and 128×128 pixel frame resolution for MP-illumination. Images (512×512 pixel, 166 lps) were recorded using a 543 nm (1 mW HeNe) laser combined with a 560 nm long-pass filter to record PI (200 nM) fluorescence and follow the onset of induced necrosis.
(§8) Two photon live cell microscopy studies were also executed on a Nikon E600 upright confocal microscope coupled to a tuneable (710-950 nm Coherent MaiTai) multiphoton source operating at (19.8%) 240 mW power at 720 nm using 166 lines/sec scan speed and 128×128 pixel frame resolution for MP-illumination. An oil immersion Nikon IR objective (×60/1.4 NA) was used. Images (512×512 pixel, 166 l/s) were recorded using a 543 nm (1 mW HeNe) laser combined with a 570 nm long-pass filter to record PI dyes (200 nM). Fluorescence was measured as 2 frame averaged images in order to follow the onset of induced necrosis. Necrosis times have been assigned to detectable PI signals in the nucleolus.

[5] = tested on: PC-3 cells; assay: Two-photon near-infra red activation, PI dye entry, PC-3; format: cell-based, human; details: PC-3, 1 μM, PI 200 nM
Procedure: as §7, §8

[6] = tested on: PC-3 cells; assay: 24 hours incubation without UV: proliferation and apoptosis (Annexin V, Image Cytometry); format: cell-based, human
Procedure: When PC-3 cells are loaded at 0.5 or 1.0 μM with 9 or 10, washed three times (Method B) or unwashed (Method A) after 24 hours of incubation, the cells visually appear without major signs of toxicity. However, the cells which had been incubated with 9 or 10 over 24 hours were not dividing as prolifically. The cultures appear to be populated ˜25% less in the presence of 9 and 20% of the cells in 10 compared to control untreated cells (FIGS. 12A-E).
In order to further investigate this point, these cells were collected via gentle centrifugation and re-suspended in fresh PBS and analyzed by Image Cytometry. Using Annexin V, these cells were all confirmed to show signs of apoptosis at 93±5%. This is in contrast to the remaining coverslip surface-bound cells that appear healthy.
These latter types of non-apoptotic cells show identical percentage of necrosis acceleration upon subsequent UV-activation of the cell-surface bound nanomachines compared to their shorter incubation time analogues. Thus, it appears that, upon 24 hour incubation, a noticeable amount of cells have nanomachines 9 and 10 either bound to vital cell membrane channels or transport proteins or they are internalized, subsequently shutting down some natural homeostatic mechanisms that leads to programmed cell death (FIGS. 12A-E). Furthermore, this is not the case with shorter incubation times regardless of whether Method A or B is used.

[7] = tested on: CHO cells; assay: UV-activated nanomechanical necrosis, live cell confocal microscopy, CHO; format: cell-based, Chinese hamster; details: 355 nm UV; for % acceleration for full necrosis: versus UV upon blank cells
Procedure: as §1, §2, §3, §4, §5, §6

[8] = NIH 3T3, Method B (washed three times)
[9] = PC-3, Method B (washed three times)

| Structure (SMILES) | Time of Full Necrosis ([2]; NIH 3T3, Method A (no washing)) [s] | Time of Initial Necrosis ([2]; NIH 3T3, Method A (no washing)) [s] | % acceleration for full necrosis ([2]; NIH 3T3, Method A) [%] | Time of Full Necrosis ([3]; PC-3, Method A (no washing)) [s] | Time of Initial Necrosis ([3]; PC-3, Method A (no washing)) [s] | % acceleration for full necrosis ([3]; PC-3, Method A) [%] | PI dye entry upon two-photon near-infra red illumination (in words) [4] | PI dye entry upon two-photon near-infra red illumination (in words) [5] | Time of Full Necrosis [2, 8] [s] | Time of Initial Necrosis [2, 8] [s] | % acceleration for full necrosis ([2]; NIH 3T3, Method B) [%] | selectivity for targeted PC-3 cells over non-targeted control cells (in words) [3] | Time of Full Necrosis [3, 9] [s] | Time of Initial Necrosis [3, 9] [s] | % acceleration for full necrosis ([3]; PC-3, Method B) [%] | further results |
| --- | --- | --- | --- | --- | --- | --- | --- | --- | --- | --- | --- | --- | --- | --- | --- | --- |
| C[C@@H]1Cc2ccc3ccccc3c2C1=C1c2cc(C#CCCO)ccc2Sc2ccc(C#CCCO)cc21 (racemic) [Compound 3] | 300 | 150 | 50 | 300 | 135 | 50 | resulting in Propidium Iodide (PI) dyes entering | resulting in Propidium Iodide (PI) dyes entering |  |  |  |  |  |  |  | membrane currents without UV illumination (in words) ([1]; HEK293, 1.0 μM, 4 minute recording, no UV): no change in membrane currents; inward ionic currents during UV illumination (in words) ([1]; HEK293, Method B, UV 355 nm, 1.0 μM): inward ionic currents were produced; radius of membrane blebs ([1]; HEK293, after UV illumination): 3.8±0.2 μm; PI entry into cells upon UV-activated membrane disruption (in words) ([3]; PC-3, propidium iodide 0.10 μM in medium): PI enters the cell |
| C[C@H](NC(=O)[C@H](CCC(=O)O)NC(=O)CNC(=O)[C@H](CC(=O)O)NC(=O)CCc1cn(CCC#Cc2ccc3c(c2)/C(=C2/c4c(ccc5ccccc45)C[C@H]2C)c2cc(C#CCCN=[N+]=[N-])ccc2S3)nn1)C(N)=O [Compound 8] | 375 | 150 | 37.5 | 360 | 150 | 40 | resulting in Propidium Iodide (PI) dyes entering | resulting in Propidium Iodide (PI) dyes entering | 360 | 150 | 40 | No selectivity was observed | 360 | 150 | 40 |  |
| CC(C)[C@H](NC(=O)[C@H](CCCNC(=N)N)NC(=O)[C@@H](NC(=O)[C@H](CC(N)=O)NC(=O)[C@H](CO)NC(=O)c1cn(CCC#Cc2ccc3c(c2)/C(=C2/c4c(ccc5ccccc45)C[C@H]2C)c2cc(C#CCCN=[N+]=[N-])ccc2S3)nn1)[C@@H](C)O)C(=O)N[C@@H](C)C(=O)N1CCC[C@H]1C(=O)O [Compound 10] (X1-SNTRVAP-OH) | 540 | 270 | 10 | 420 | 195 | 30 |  |  | 600 | 300 | 0 | selectively target the PC-3 cell line over CHO cells | 435 | 210 | 27.5 | cultures populated less compared to control untreated cells ([6]; PC-3, 0.5 or 1.0 μM, 24 hours of incubation, no UV): 20%; mobilized cells showing signs of apoptosis (Annexin V) ([6]; PC-3, 24 hours incubation, cells collected from culture media): 93±5%; UV-accelerated nanomechanical necrosis after 24 hours incubation (in words) ([2]; NIH 3T3, incubated 24 hours): less than half the efficiency compared to identical experiments using the targeted PC-3 cells; accelerated necrosis upon UV-activation after washing and further 24 hours in rotor free media ([3]; PC-3, incubated 30 minutes to 4 hours, washed three times, 24 hours rotor free media): 25%; Time of Full Necrosis ([7]; Method A (no washing)): 540 s; Time of Initial Necrosis ([7]; Method A (no washing)): 270 s; % acceleration for full necrosis ([7]; Method A): 10%; Time of Full Necrosis ([7]; Method B (washed three times)): 600 s; Time of Initial Necrosis ([7]; Method B (washed three times)): 300 s; % acceleration for full necrosis ([7]; Method B): 0% |
